# Data from ChEMBL document CHEMBL3885861, “Open TG-GATES”.
# Species: Rattus norvegicus
# Assay: Open TG-GATES - Regimen: Single
# Format: toxicity, organism-based, Sprague-Dawley
# Set-up: regimen Single, gender Male, age 6 weeks
# Settings: in vivo, po, 0 mg/kg, route gavage, dose level Control; for APTT / Bas / Eos / Fbg / Hb / Ht / Lym / MCH / MCHC / MCV / Mono / Neu / PT / Plat / RBC / Ret / WBC: tissue Blood; for KIDNEY_L / KIDNEY_R / KIDNEY_TOTAL: tissue Kidney; for LIVER: tissue Liver; for A/G / ALP / ALT / AST / BUN / CRE / Ca / Cl / DBIL / GLC / IP / K / LDH / Na / PL / RALB / TBIL / TC / TG / TP / gamma-GTP: tissue Plasma
smiles,measurement,setting,value
C=CCO [ALLYL ALCOHOL],TERMINAL_BW,3 h,221.5 g
same,APTT,3 h,19.5 s
same,Bas,3 h,0%
same,Eos,3 h,1%
same,Fbg,3 h,226.4 mg/dL
same,Hb,3 h,13.4 g/dL
same,Ht,3 h,39.2%
same,Lym,3 h,73.8%
same,MCH,3 h,20.8 pg
same,MCHC,3 h,34.3%
same,MCV,3 h,60.8 fL
same,Mono,3 h,3%
same,Neu,3 h,21.8%
same,PT,3 h,12.2 s
same,Plat,3 h,135.4 x10_4/uL
same,RBC,3 h,645 x10_4/ul
same,Ret,3 h,6.7%
same,WBC,3 h,82.7 x10_2/uL
same,KIDNEY_L,3 h,0.9 g
same,KIDNEY_R,3 h,0.9 g
same,KIDNEY_TOTAL,3 h,1.8 g
same,LIVER,3 h,9.9 g
same,A/G,3 h,1.4
same,ALP,3 h,946 IU/L
same,ALT,3 h,41.2 IU/L
same,AST,3 h,72.2 IU/L
same,BUN,3 h,11.2 mg/dL
same,CRE,3 h,0.4 mg/dL
same,Ca,3 h,10.8 mg/dL
same,Cl,3 h,102 meq/L
same,DBIL,3 h,0.3 mg/dL
same,GLC,3 h,192.4 mg/dL
same,IP,3 h,9.1 mg/dL
same,K,3 h,3.9 meq/L
same,LDH,3 h,190.8 IU/L
same,Na,3 h,140 meq/L
same,PL,3 h,176.2 mg/dL
same,RALB,3 h,3.2 g/dL
same,TBIL,3 h,0.4 mg/dL
same,TC,3 h,83.8 mg/dL
same,TG,3 h,186.2 mg/dL
same,TP,3 h,5.6 g/dL
same,gamma-GTP,3 h,1.2 IU/L
same,TERMINAL_BW,6 h,221.2 g
same,APTT,6 h,19.3 s
same,Bas,6 h,0%
same,Eos,6 h,1%
same,Fbg,6 h,235.8 mg/dL
same,Hb,6 h,13.4 g/dL
same,Ht,6 h,38.9%
same,Lym,6 h,73.2%
same,MCH,6 h,21.4 pg
same,MCHC,6 h,34.5%
same,MCV,6 h,62.1 fL
same,Mono,6 h,4.2%
same,Neu,6 h,21.6%
same,PT,6 h,12.2 s
same,Plat,6 h,124.2 x10_4/uL
same,RBC,6 h,626.2 x10_4/ul
same,Ret,6 h,7.3%
same,WBC,6 h,115.2 x10_2/uL
same,KIDNEY_L,6 h,0.9 g
same,KIDNEY_R,6 h,1 g
same,KIDNEY_TOTAL,6 h,1.9 g
same,LIVER,6 h,9.6 g
same,A/G,6 h,1.6
same,ALP,6 h,1049.2 IU/L
same,ALT,6 h,33.2 IU/L
same,AST,6 h,62.6 IU/L
same,BUN,6 h,10 mg/dL
same,CRE,6 h,0.4 mg/dL
same,Ca,6 h,10.5 mg/dL
same,Cl,6 h,102.8 meq/L
same,DBIL,6 h,0.086 mg/dL
same,GLC,6 h,199.6 mg/dL
same,IP,6 h,8.9 mg/dL
same,K,6 h,3.8 meq/L
same,LDH,6 h,195.6 IU/L
same,Na,6 h,140.8 meq/L
same,PL,6 h,146 mg/dL
same,RALB,6 h,3.4 g/dL
same,TBIL,6 h,0.1 mg/dL
same,TC,6 h,74.8 mg/dL
same,TG,6 h,66.2 mg/dL
same,TP,6 h,5.5 g/dL
same,gamma-GTP,6 h,1 IU/L
same,TERMINAL_BW,9 h,217.9 g
same,APTT,9 h,18.7 s
same,Bas,9 h,0%
same,Eos,9 h,1%
same,Fbg,9 h,219.6 mg/dL
same,Hb,9 h,13.2 g/dL
same,Ht,9 h,38.5%
same,Lym,9 h,74.8%
same,MCH,9 h,20.7 pg
same,MCHC,9 h,34.4%
same,MCV,9 h,60.2 fL
same,Mono,9 h,3.2%
same,Neu,9 h,20.4%
same,PT,9 h,12.5 s
same,Plat,9 h,132.1 x10_4/uL
same,RBC,9 h,639.8 x10_4/ul
same,Ret,9 h,6.9%
same,WBC,9 h,99.3 x10_2/uL
same,KIDNEY_L,9 h,1 g
same,KIDNEY_R,9 h,0.9 g
same,KIDNEY_TOTAL,9 h,1.9 g
same,LIVER,9 h,9.1 g
same,A/G,9 h,1.5
same,ALP,9 h,880.4 IU/L
same,ALT,9 h,28.2 IU/L
same,AST,9 h,62.2 IU/L
same,BUN,9 h,12 mg/dL
same,CRE,9 h,0.4 mg/dL
same,Ca,9 h,10.4 mg/dL
same,Cl,9 h,101.6 meq/L
same,DBIL,9 h,0.08 mg/dL
same,GLC,9 h,208.2 mg/dL
same,IP,9 h,10.7 mg/dL
same,K,9 h,3.6 meq/L
same,LDH,9 h,158.4 IU/L
same,Na,9 h,141 meq/L
same,PL,9 h,148.4 mg/dL
same,RALB,9 h,3.3 g/dL
same,TBIL,9 h,0.1 mg/dL
same,TC,9 h,72.8 mg/dL
same,TG,9 h,81 mg/dL
same,TP,9 h,5.6 g/dL
same,gamma-GTP,9 h,1 IU/L
same,TERMINAL_BW,24 h,231.2 g
same,APTT,24 h,19.4 s
same,Bas,24 h,0%
same,Eos,24 h,1%
same,Fbg,24 h,235.8 mg/dL
same,Hb,24 h,13.1 g/dL
same,Ht,24 h,38.5%
same,Lym,24 h,78.2%
same,MCH,24 h,20.5 pg
same,MCHC,24 h,34.1%
same,MCV,24 h,60.3 fL
same,Mono,24 h,3%
same,Neu,24 h,17.2%
same,PT,24 h,12.2 s
same,Plat,24 h,140 x10_4/uL
same,RBC,24 h,640.6 x10_4/ul
same,Ret,24 h,6.2%
same,WBC,24 h,99.8 x10_2/uL
same,KIDNEY_L,24 h,0.9 g
same,KIDNEY_R,24 h,1 g
same,KIDNEY_TOTAL,24 h,1.9 g
same,LIVER,24 h,10.8 g
same,A/G,24 h,1.5
same,ALP,24 h,963.4 IU/L
same,ALT,24 h,35.8 IU/L
same,AST,24 h,63.2 IU/L
same,BUN,24 h,15.8 mg/dL
same,CRE,24 h,0.4 mg/dL
same,Ca,24 h,10.8 mg/dL
same,Cl,24 h,102 meq/L
same,DBIL,24 h,0.098 mg/dL
same,GLC,24 h,196.4 mg/dL
same,IP,24 h,7.1 mg/dL
same,K,24 h,4 meq/L
same,LDH,24 h,186.4 IU/L
same,Na,24 h,140.8 meq/L
same,PL,24 h,147.6 mg/dL
same,RALB,24 h,3.3 g/dL
same,TBIL,24 h,0.2 mg/dL
same,TC,24 h,74.2 mg/dL
same,TG,24 h,116 mg/dL
same,TP,24 h,5.6 g/dL
same,gamma-GTP,24 h,0.8 IU/L
